{"source": "patent US20060069132A1", "about": "“Azolecarboxamide herbicides” (priority 2004, published 2006)", "key": {"wild oat": {"test_system": "wild oat", "assay": "Test B postemergence herbicide test", "format": "in vivo, Avena fatua", "settings": "postemergence, visual rating, scale 0 (no effect) to 100 (complete control)", "summary_of_the_method": "(§1)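 Plants grow to 1- to 4-leaf stage (2–18 cm) for postemergence spraying, or to 2-leaf stage for the paddy test. Formulated compound is applied. Greenhouse holding lasts 13–15 days. Response is scored visually relative to controls, 0 no effect to 100 complete control; a dash means no result.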"}, "barnyardgrass [1]": {"test_system": "barnyardgrass", "assay": "Test B flooded paddy test", "format": "in vivo, Echinochloa crus-galli", "settings": "1000 g ai/ha, visual rating, scale 0 to 100 (0 no effect, 100 complete control), 13 to 15 days", "summary_of_the_method": "(§2)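 Visual ratings, 0 (no effect) to 100 (complete control), made versus controls after 13–15 d greenhouse. Paddy plants treated at 2-leaf stage; postemergence plants at 1- to 4-leaf stage, 2–18 cm tall.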"}, "corn": {"test_system": "corn", "assay": "Test B pre-/postemergence herbicide test", "format": "in vivo, Zea mays", "settings": "for Corn plant response rating: postemergence, visual rating, scale 0 (no effect) to 100 (complete control)", "summary_of_the_method": "(§3)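 Herbicidal effect was judged by eye on a 0–100 scale after plants stood 13 to 15 days in the greenhouse following pre- or postemergence treatment with surfactant-containing formulations.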"}, "large crabgrass": {"test_system": "large crabgrass", "assay": "Test B pre-/postemergence herbicide test", "format": "in vivo, Digitaria sanguinalis", "settings": "for Crabgrass, Large plant response rating: postemergence, visual rating, scale 0 (no effect) to 100 (complete control)", "summary_of_the_method": "as §3"}, "giant foxtail": {"test_system": "giant foxtail", "assay": "Test B pre-/postemergence herbicide test", "format": "in vivo, Setaria faberi", "settings": "for Foxtail, Giant plant response rating: postemergence, visual rating, scale 0 (no effect) to 100 (complete control)", "summary_of_the_method": "as §3"}, "pigweed": {"test_system": "pigweed", "assay": "Test B pre-/postemergence herbicide test", "format": "in vivo, Amaranthus retroflexus", "settings": "for Pigweed plant response rating: postemergence, visual rating, scale 0 (no effect) to 100 (complete control)", "summary_of_the_method": "as §3"}, "morningglory": {"test_system": "morningglory", "assay": "Test B pre-/postemergence herbicide test", "format": "in vivo, Ipomoea coccinea", "settings": "for Morningglory plant response rating: postemergence, visual rating, scale 0 (no effect) to 100 (complete control)", "summary_of_the_method": "(§4)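 Visual rating, 0 (no effect) to 100 (complete control), versus untreated controls after 13–15 d in greenhouse. Pre- and postemergence applications (postemergence plants 2–18 cm, 1–4 leaves); flooded paddy arm at 2-leaf stage. Compounds in non-phytotoxic solvent plus surfactant.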"}, "cocklebur": {"test_system": "cocklebur", "assay": "Test B pre-/postemergence herbicide test", "format": "in vivo, Xanthium strumarium", "settings": "for Cocklebur plant response rating: postemergence, visual rating, scale 0 (no effect) to 100 (complete control)", "summary_of_the_method": "as §4"}, "barnyardgrass [2]": {"test_system": "barnyardgrass", "assay": "Test B pre-/postemergence herbicide test", "format": "in vivo, Echinochloa crus-galli", "settings": "for Barnyardgrass plant response rating: postemergence, visual rating, scale 0 (no effect) to 100 (complete control)", "summary_of_the_method": "as §4"}, "ducksalad": {"test_system": "ducksalad", "assay": "Test B flooded paddy test", "format": "in vivo, Heteranthera limosa", "settings": "1000 g ai/ha, visual rating, scale 0 to 100 (0 no effect, 100 complete control), 13 to 15 days", "summary_of_the_method": "as §2"}, "lambsquarters": {"test_system": "lambsquarters", "assay": "Test B pre-/postemergence herbicide test", "format": "in vivo, Chenopodium album", "settings": "for Lambsquarters plant response rating: postemergence, visual rating, scale 0 (no effect) to 100 (complete control)", "summary_of_the_method": "as §3"}, "rice": {"test_system": "rice", "assay": "Test B flooded paddy test", "format": "in vivo, Oryza sativa", "settings": "1000 g ai/ha, visual rating, scale 0 to 100 (0 no effect, 100 complete control), 13 to 15 days", "summary_of_the_method": "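Treated at 2-leaf (paddy) or 1–4-leaf, 2–18 cm (postemergence); greenhouse 13–15 d; visual score vs control, 0 none to 100 complete control; dash = not tested.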"}, "wheat": {"test_system": "wheat", "assay": "Test B postemergence herbicide test", "format": "in vivo, Triticum aestivum", "set-up": "key to Wheat plant response rating: 0 = no effect, 100 = complete control", "settings": "postemergence, visual rating, scale 0 (no effect) to 100 (complete control)", "summary_of_the_method": "as §1"}, "Surinam grass": {"test_system": "Surinam grass", "assay": "Test B pre-/postemergence herbicide test", "format": "in vivo, Urochloa decumbens", "settings": "for Surinam Grass plant response rating: postemergence, visual rating, scale 0 (no effect) to 100 (complete control)", "summary_of_the_method": "as §3"}, "velvetleaf": {"test_system": "velvetleaf", "assay": "Test B pre-/postemergence herbicide test", "format": "in vivo, Abutilon theophrasti", "settings": "for Velvetleaf plant response rating: postemergence, visual rating, scale 0 (no effect) to 100 (complete control)", "summary_of_the_method": "as §3"}, "[3]": {"settings": "125 g ai/ha, 0 = no effect, 100 = complete control, preemergence"}, "[4]": {"settings": "500 g ai/ha, visual rating 0-100, 0 no effect, 100 complete control, preemergence"}}, "data": [{"compound": "CCN(CC)C(=O)c1cccc(NC(=O)c2sc(C(C)(C)C)nc2C)c1", "note": "[Compound 199]", "values": [{"measurement": "Oat, Wild plant response rating", "setting": "wild oat; 125 g ai/ha", "result": 10}, {"measurement": "Oat, Wild plant response rating", "setting": "wild oat; 500 g ai/ha", "result": 10}, {"measurement": "Barnyardgrass plant response rating", "setting": "barnyardgrass [1]", "result": 10}, {"measurement": "Corn plant response rating (0 to 100 scale)", "setting": "corn; [3]", "result": 0}, {"measurement": "Plant response rating, Corn", "setting": "corn; [4]", "result": 10}, {"measurement": "Corn plant response rating", "setting": "corn; 125 g ai/ha", "result": 10}, {"measurement": "Corn plant response rating", "setting": "corn; 500 g ai/ha", "result": 20}, {"measurement": "Crabgrass, Large plant response rating (0 to 100 scale)", "setting": "large crabgrass; [3]", "result": 90}, {"measurement": "Plant response rating, Crabgrass, Large", "setting": "large crabgrass; [4]", "result": 100}, {"measurement": "Crabgrass, Large plant response rating", "setting": "large crabgrass; 125 g ai/ha", "result": 10}, {"measurement": "Crabgrass, Large plant response rating", "setting": "large crabgrass; 500 g ai/ha", "result": 10}, {"measurement": "Foxtail, Giant plant response rating (0 to 100 scale)", "setting": "giant foxtail; [3]", "result": 10}, {"measurement": "Plant response rating, Foxtail, Giant", "setting": "giant foxtail; [4]", "result": 100}, {"measurement": "Foxtail, Giant plant response rating", "setting": "giant foxtail; 125 g ai/ha", "result": 10}, {"measurement": "Foxtail, Giant plant response rating", "setting": "giant foxtail; 500 g ai/ha", "result": 10}, {"measurement": "Pigweed plant response rating (0 to 100 scale)", "setting": "pigweed; [3]", "result": 90}, {"measurement": "Plant response rating, Pigweed", "setting": "pigweed; [4]", "result": 100}, {"measurement": "Pigweed plant response rating", "setting": "pigweed; 125 g ai/ha", "result": 10}, {"measurement": "Pigweed plant response rating", "setting": "pigweed; 500 g ai/ha", "result": 40}, {"measurement": "Morningglory plant response rating (0 to 100 scale)", "setting": "morningglory; [3]", "result": 0}, {"measurement": "Plant response rating, Morningglory", "setting": "morningglory; [4]", "result": 60}, {"measurement": "Morningglory plant response rating", "setting": "morningglory; 125 g ai/ha", "result": 40}, {"measurement": "Morningglory plant response rating", "setting": "morningglory; 500 g ai/ha", "result": 60}, {"measurement": "Cocklebur plant response rating (0 to 100 scale)", "setting": "cocklebur; [3]", "result": 0}, {"measurement": "Plant response rating, Cocklebur", "setting": "cocklebur; [4]", "result": 0}, {"measurement": "Cocklebur plant response rating", "setting": "cocklebur; 125 g ai/ha", "result": 10}, {"measurement": "Cocklebur plant response rating", "setting": "cocklebur; 500 g ai/ha", "result": 60}, {"measurement": "Barnyardgrass plant response rating (0 to 100 scale)", "setting": "barnyardgrass [2]; [3]", "result": 20}, {"measurement": "Plant response rating, Barnyardgrass", "setting": "barnyardgrass [2]; [4]", "result": 90}, {"measurement": "Barnyardgrass plant response rating", "setting": "barnyardgrass [2]; 125 g ai/ha", "result": 0}, {"measurement": "Barnyardgrass plant response rating", "setting": "barnyardgrass [2]; 500 g ai/ha", "result": 10}, {"measurement": "Ducksalad plant response rating", "setting": "ducksalad", "result": 0}, {"measurement": "Lambsquarters plant response rating (0 to 100 scale)", "setting": "lambsquarters; [3]", "result": 80}, {"measurement": "Plant response rating, Lambsquarters", "setting": "lambsquarters; [4]", "result": 90}, {"measurement": "Lambsquarters plant response rating", "setting": "lambsquarters; 125 g ai/ha", "result": 60}, {"measurement": "Lambsquarters plant response rating", "setting": "lambsquarters; 500 g ai/ha", "result": 70}, {"measurement": "Rice plant response rating", "setting": "rice", "result": 20}, {"measurement": "Wheat plant response rating", "setting": "wheat; 125 g ai/ha", "result": 0}, {"measurement": "Wheat plant response rating", "setting": "wheat; 500 g ai/ha", "result": 10}, {"measurement": "Surinam Grass plant response rating (0 to 100 scale)", "setting": "Surinam grass; [3]", "result": 10}, {"measurement": "Plant response rating, Surinam Grass", "setting": "Surinam grass; [4]", "result": 70}, {"measurement": "Surinam Grass plant response rating", "setting": "Surinam grass; 125 g ai/ha", "result": 10}, {"measurement": "Surinam Grass plant response rating", "setting": "Surinam grass; 500 g ai/ha", "result": 20}, {"measurement": "Velvetleaf plant response rating (0 to 100 scale)", "setting": "velvetleaf; [3]", "result": 0}, {"measurement": "Plant response rating, Velvetleaf", "setting": "velvetleaf; [4]", "result": 60}, {"measurement": "Velvetleaf plant response rating", "setting": "velvetleaf; 125 g ai/ha", "result": 20}, {"measurement": "Velvetleaf plant response rating", "setting": "velvetleaf; 500 g ai/ha", "result": 30}]}]}
